Measurements taken from patent US10632192B2, “Pyrimidine compounds and their use as vaccine adjuvants” (Sumitomo Dainippon Pharma Co., Ltd., priority 2015, dated 2020).

How the values were obtained:
[1] = tested on: C57BL/6 mouse; experiment: OVA-specific IgG in plasma of mice immunized with OVA plus compound (ELISA); type: in vivo; details: intramuscular, equal volume mixture (100 μL/mouse) of OVA 1 mg/mL and compound 0.1 mg/mL, booster two weeks later, plasma one week after booster, vs negative control group, FIG. 1
Method: (§1) For the first immunization, an equal volume mixture (100 μL/mouse) of ovalbumin (OVA) (1 mg/mL) and a compound of the above Examples (0.1 mg/mL) was administered intramuscularly to gastrocnemius muscle of C57BL/6 mouse. Two weeks later, an equal amount of the same mixture was administered intramuscularly to the gastrocnemius muscle for booster immunization. One week after the booster immunization, cardiac blood was collected under isoflurane inhalation anesthesia, and plasma was collected by centrifugation. OVA-specific IgG value in plasma was measured by ELISA using mouse anti-ovalbumin IgG ELISA kit (Alpha Diagnostic) (See FIG. 1).

[2] = tested on: C57BL/6 mouse; experiment: OVA-specific IgG1 and IgG2c in immunized mouse plasma (ELISA); type: in vivo; details: intramuscular OVA + compound, prime and booster, vs negative control group, FIG. 2
Method: as §1
Also, the OVA-specific IgG1 and IgG2c values in the immunized mouse plasma were determined by ELISA method. Specifically, OVA solution (SIGMA) was added to a 96-well plate, followed by blocking with 1% skim milk (Wako Pure Chemical Industries, Ltd.). A plasma sample, which was diluted with phosphate buffer, and then a secondary antibody (goat anti-mouse IgG1 (Jackson) or IgG2c (Southern Bio)) were added. SureBlue™ TMB microwell peroxidase substrate (KPL) was added, and the product of the enzyme reaction was measured by microplate reader (See FIG. 2).

[3] = tested on: spleen cells; experiment: OVA-specific multifunctional CD4-positive T lymphocytes in spleen cells of immunized mice (flow cytometry); type: in vivo, mouse; details: spleen cells of mice of Test Example 1, cultured overnight with OVA and Brefeldin A; IFN-γ, IL-2, TNF-α staining; vs negative control group; FIG. 3
Method: as §1
The spleen cells were prepared from the mouse of Test Example 1. The cells were added with OVA and Brefeldin A (eBioscience) and cultured overnight. The cultured cells were harvested, stained with APC-labeled anti-mouse CD3e antibody, FITC-labeled anti-mouse CD4 antibody and Fixable Viability Dye Fluor® 450 (eBioscience), and fixed in Fixation/Permeabilization buffer (eBioscience). After treatment in Permeabilization buffer (eBioscience), the cells were stained with antibody cocktail PerCP-Cy5.5-labeled anti-IFN-γ antibody, PE-Cy7-labeled anti-IL-2 antibody, and PE-labeled TNF-α (eBioscience). Data acquisition and analysis were performed using FACS Cant II (BD Biosciences) and FLOWJO software (TreeStar).

[4] = tested on: spleen cells; experiment: MHC-restricted OVA-specific CD8-positive T lymphocytes in spleen cells of immunized mice (tetramer staining); type: in vivo, mouse; details: spleen cells of mice of Test Example 1, H-2Kb OVA Tetramer-SINFEKL; vs negative control group; FIG. 4
Method: as §1
The spleen cells were also stained with eFluor 450-labeled anti-mouse CD3e antibody, Alexa Fluor® 647-labeled anti-mouse CD8 antibody, PE-labeled H-2Kb OVA Tetramer-SINFEKL (MBL) and Flexable Viability Dye eFluor 520 (eBioscience). Data acquisition and analysis were performed using FACS Cant II (BD Biosciences) and FLOWJO software (TreeStar).

[5] = tested on: spleen cells; experiment: CD8-positive effector memory T lymphocytes in spleen cells of immunized mice (flow cytometry); type: in vivo, mouse; details: spleen cells of mice of Test Example 1, CD44/CD62L staining; vs negative control group; FIG. 5
Method: as §1
The spleen cells were further incubated with antibody cocktail eFluor450-labeled anti-mouse CD3e antibody, Alexa Fluor647-labeled anti-mouse CD8 antibody, PE-Cy7-labeled anti-mouse CD44 antibody, PerCP-Cy5.5-labeled anti-mouse CD62L antibody and Fixable Viability Dye520 (eBioscience). Data acquisition and analysis were performed using FACS Cant II (BD Biosciences) and FLOWJO software (TreeStar).

Row | SMILES | OVA-specific IgG production in plasma [1] | ratio of OVA-specific IgG2c to IgG1 in plasma [2] | proportion of OVA-specific multifunctional CD4-positive T lymphocytes [3] | proportion of MHC-restricted OVA-specific CD8-positive T lymphocytes [4] | proportion of CD8-positive effector memory T lymphocytes [5]
1 | CCC[C@@H](CO)Nc1nc(N)nc(C)c1Cc1ccc(C(=O)NCCNC(=O)CC/C(C)=C/CC/C(C)=C/CC/C(C)=C/CC/C=C(\C)CC/C=C(\C)CCC=C(C)C)cc1OC [Example 4, 4-[(2-amino-4-{[(25)-1-hydroxypentan-2-yl]amino}-6-methylpyrimidin-5-yl)methyl]-N-(2-{[(4E,8E,12E,16E,20E)-4,8,12,17,21,25-hexamethylhexacosa-4,8,12,16,20,24-hexaenoyl]amino}ethyl)-3-methoxybenzamide] | induced significant OVA-specific IgG production | significantly increased | significantly increased | significantly increased | significantly increased
2 | CCC[C@@H](CCO)Nc1nc(N)nc(C)c1Cc1ccc(CN(C)CCNC(=O)CC/C(C)=C/CC/C(C)=C/CC/C(C)=C/CC/C=C(\C)CC/C=C(\C)CCC=C(C)C)cc1 [Example 1, (4E,8E,12E,16E,20E)-N-{2-[{4-[(2-amino-4-{[(3S)-1-hydroxyhexan-3-yl]amino}-6-methylpyrimidin-5-yl)methyl]benzyl}(methyl)amino]ethyl}-4,8,12,17,21,25-hexamethylhexacosa-4,8,12,16,20,24-hexaenamide] | induced significant OVA-specific IgG production | significantly increased | significantly increased | significantly increased | significantly increased
